Test results published in ChEMBL document CHEMBL3044789, “Comparing weed and crop seedling response to pre-emergence pendimethalin application in Corchorus olitorius and Abelmoschus esculentus” (Crop Prot, 2006).

What was measured:
Euphorbia heterophylla [1] = test: Herbicidal activity against Euphorbia heterophylla in Corchorus olitorius plots assessed as weed cover at 0.33 kg a.i/ha after 2 weeks (reference value: 81.7 +/- 0.43 %); assay type: functional
Ageratum conyzoides [2] = test: Herbicidal activity against Ageratum conyzoides in Abelmoschus esculentus plots assessed as major weed growth at 0.33 kg a.i/ha after 2 weeks; assay type: functional
Corchorus olitorius [3] = test: Phytotoxicity in Corchorus olitorius assessed as root length at 0.99 kg a.i/ha treated to soil after 7 weeks (reference value: 16.9 +/- 0.09 mm); assay type: organism-based; conditions: in vivo, other, 1176 h
Corchorus olitorius [4] = test: Phytotoxicity in Corchorus olitorius assessed as crop seedling injury at 1.32 kg a.i/ha after 2 weeks relative to untreated control; assay type: organism-based; conditions: in vivo, 336 h
Chromolaena odorata [5] = test: Herbicidal activity against Chromolaena odorata in Corchorus olitorius plots assessed as weed cover at 0.99 kg a.i/ha after 2 weeks (reference value: 81.7 +/- 0.43 %); assay type: functional
Euphorbia heterophylla [6] = test: Herbicidal activity against Euphorbia heterophylla in Abelmoschus esculentus plots assessed as weed cover at 0.66 kg a.i/ha after 2 weeks (reference value: 63.5 +/- 0.29 %); assay type: functional
Ageratum conyzoides [7] = test: Herbicidal activity against Ageratum conyzoides in Abelmoschus esculentus plots assessed as weed recovery at 1.32 kg a.i/ha after 2 weeks (reference value: 60.1 +/- 0.46 %); assay type: functional
Abelmoschus esculentus [8] = test: Phytotoxicity in Abelmoschus esculentus assessed as root length at 0.33 kg a.i/ha applied as solution after 7 weeks (reference value: 23 +/- 0.34 mm); assay type: organism-based; conditions: in vivo, other, 1176 h
Calopogonium mucunoides [9] = test: Herbicidal activity against Calopogonium mucunoides in Abelmoschus esculentus plots assessed as weed cover at 0.66 kg a.i/ha after 7 weeks (reference value: 14.7 +/- 0.46 %); assay type: functional
Abelmoschus esculentus [10] = test: Phytotoxicity in Abelmoschus esculentus assessed as shoot length at 0.33 kg a.i/ha treated to soil after 7 weeks (reference value: 8.5 +/- 0.34 mm); assay type: organism-based; conditions: in vivo, other, 1176 h
Corchorus olitorius [11] = test: Phytotoxicity in Corchorus olitorius assessed as seed germination at 0.33 kg a.i/ha applied as solution after 7 weeks relative to untreated control; assay type: organism-based; conditions: in vivo, other, 1176 h
Cyperus rotundus = test: Herbicidal activity against Cyperus rotundus in Corchorus olitorius plots assessed as weed cover at 0.66 kg a.i/ha after 2 weeks (reference value: 81.7 +/- 0.43 %); assay type: functional
Synedrella nodiflora [12] = test: Herbicidal activity against Synedrella nodiflora in Corchorus olitorius plots assessed as weed recovery at 0.99 kg a.i/ha after 2 weeks (reference value: 78.3 +/- 0.74 %); assay type: functional
Abelmoschus esculentus [13] = test: Phytotoxicity in Abelmoschus esculentus assessed as seedling injury at 0.66 kg a.i/ha applied as solution after 7 weeks relative to control; assay type: organism-based; conditions: in vivo, other, 1176 h
Calopogonium mucunoides [14] = test: Herbicidal activity against Calopogonium mucunoides in Corchorus olitorius plots assessed as weed recovery at 0.99 kg a.i/ha after 2 weeks (reference value: 78.3 +/- 0.74 %); assay type: functional
Euphorbia heterophylla [15] = test: Herbicidal activity against Euphorbia heterophylla in Abelmoschus esculentus plots assessed as weed cover at 0.33 kg a.i/ha after 4 weeks (reference value: 22.6 +/- 0.49 %); assay type: functional
Synedrella nodiflora [16] = test: Herbicidal activity against Synedrella nodiflora in Corchorus olitorius plots assessed as weed cover at 0.33 kg a.i/ha after 7 weeks (reference value: 1.7 +/- 0.56 %); assay type: functional
Abelmoschus esculentus [17] = test: Phytotoxicity in Abelmoschus esculentus assessed as seedling emergence at 0.66 kg a.i/ha treated to soil after 7 weeks (reference value: 95 +/- 0.05 %); assay type: organism-based; conditions: in vivo, other, 1176 h
Synedrella nodiflora [18] = test: Herbicidal activity against Synedrella nodiflora in Corchorus olitorius plots assessed as weed cover at 1.32 kg a.i/ha after 2 weeks (reference value: 81.7 +/- 0.43 %); assay type: functional
Synedrella nodiflora [19] = test: Herbicidal activity against Synedrella nodiflora in Abelmoschus esculentus plots assessed as weed cover at 0.66 kg a.i/ha after 7 weeks (reference value: 14.7 +/- 0.46 %); assay type: functional
Abelmoschus esculentus [20] = test: Phytotoxicity in Abelmoschus esculentus assessed as seedling injury at 0.99 kg a.i/ha applied as solution after 7 weeks relative to control; assay type: organism-based; conditions: in vivo, other, 1176 h
Asteraceae = test: Herbicidal activity against Aspilia africana in Corchorus olitorius plots assessed as weed cover at 0.66 kg a.i/ha after 2 weeks (reference value: 81.7 +/- 0.43 %); assay type: functional
Euphorbia heterophylla [21] = test: Herbicidal activity against Euphorbia heterophylla in Corchorus olitorius plots assessed as weed cover at 0.66 kg a.i/ha after 7 weeks (reference value: 1.7 +/- 0.56 %); assay type: functional
Chromolaena odorata [22] = test: Herbicidal activity against Chromolaena odorata in Corchorus olitorius plots assessed as weed cover at 0.99 kg a.i/ha after 4 weeks (reference value: 20.1+/- 0.57 %); assay type: functional
Corchorus olitorius [23] = test: Phytotoxicity in Corchorus olitorius assessed as seedling emergence at 0.99 kg a.i/ha treated to soil after 7 weeks (reference value: 95 +/- 0.05 %); assay type: organism-based; conditions: in vivo, other, 1176 h
Euphorbia heterophylla [24] = test: Herbicidal activity against Euphorbia heterophylla in Abelmoschus esculentus plots assessed as weed cover at 0.66 kg a.i/ha after 7 weeks (reference value: 14.7 +/- 0.46 %); assay type: functional
Calopogonium mucunoides [25] = test: Herbicidal activity against Calopogonium mucunoides in Abelmoschus esculentus plots assessed as weed cover at 1.32 kg a.i/ha after 7 weeks (reference value: 14.7 +/- 0.46 %); assay type: functional
Talinum fruticosum = test: Herbicidal activity against Talinum fruticosum in Corchorus olitorius plots assessed as weed recovery at 0.99 kg a.i/ha after 2 weeks (reference value: 78.3 +/- 0.74 %); assay type: functional
[26] = tested on: Rottboellia cochinchinensis; test: Herbicidal activity against Rottboellia cochinchinensis in Abelmoschus esculentus plots assessed as major weed growth at 0.33 kg a.i/ha after 2 weeks; assay type: functional
Abelmoschus esculentus [27] = test: Phytotoxicity in Abelmoschus esculentus assessed as root length at 0.66 kg a.i/ha treated to soil after 7 weeks (reference value: 2.9 +/- 0.45 mm); assay type: organism-based; conditions: in vivo, other, 1176 h
Abelmoschus esculentus [28] = test: Phytotoxicity in Abelmoschus esculentus assessed as crop seedling injury at 0.66 kg a.i/ha after 2 weeks relative to untreated control; assay type: organism-based; conditions: in vivo, 336 h
Euphorbia heterophylla [29] = test: Herbicidal activity against Euphorbia heterophylla in Abelmoschus esculentus plots assessed as weed cover at 0.33 kg a.i/ha after 7 weeks (reference value: 14.7 +/- 0.46 %); assay type: functional
Euphorbia heterophylla [30] = test: Herbicidal activity against Euphorbia heterophylla in Corchorus olitorius plots assessed as weed cover at 1.32 kg a.i/ha after 7 weeks (reference value: 1.7 +/- 0.56 %); assay type: functional
Euphorbia heterophylla [31] = test: Herbicidal activity against Euphorbia heterophylla in Corchorus olitorius plots assessed as weed cover at 0.99 kg a.i/ha after 7 weeks (reference value: 1.7 +/- 0.56 %); assay type: functional
[32] = tested on: Rottboellia cochinchinensis; test: Herbicidal activity against Rottboellia cochinchinensis in Corchorus olitorius plots assessed as weed cover at 0.33 kg a.i/ha after 2 weeks (reference value: 81.7 +/- 0.43 %); assay type: functional
Calopogonium mucunoides [33] = test: Herbicidal activity against Calopogonium mucunoides in Corchorus olitorius plots assessed as minor weed growth at 0.66 kg a.i/ha after 2 weeks; assay type: functional

Q: For `CCC(CC)Nc1c([N+](=O)[O-])cc(C)c(C)c1[N+](=O)[O-]` [PENDIMETHALIN], which Activity (Euphorbia heterophylla [1]) is on record?
A: 63.3%

Q: And the Activity (Ageratum conyzoides [2])?
A: 31 /m2

Q: And the Activity (Corchorus olitorius [3])?
A: 16.4 mm

Q: And the Activity (Corchorus olitorius [4])?
A: 76.7%

Q: What about the Activity (Chromolaena odorata [5]) of the same molecule?
A: 51.7%

Q: What about the Activity (Euphorbia heterophylla [6]) of the same molecule?
A: 50.8%

Q: And the Activity (Ageratum conyzoides [7])?
A: 33.2%

Q: And the Activity (Abelmoschus esculentus [8])?
A: 11.7 mm

Q: What about the Activity (Calopogonium mucunoides [9]) of the same molecule?
A: 90%

Q: And the Activity (Abelmoschus esculentus [10])?
A: 8.6 mm

Q: What about the Activity (Corchorus olitorius [11]) of the same molecule?
A: 88.7%

Q: What about the Activity (Cyperus rotundus) of the same molecule?
A: 51.7%

Q: What about the Activity (Synedrella nodiflora [12]) of the same molecule?
A: 21.7%

Q: What about the Activity (Abelmoschus esculentus [13]) of the same molecule?
A: 39.2%

Q: And the Activity (Calopogonium mucunoides [14])?
A: 21.7%

Q: What about the Activity (Euphorbia heterophylla [15]) of the same molecule?
A: 53.8%

Q: And the Activity (Synedrella nodiflora [16])?
A: 100%

Q: And the Activity (Abelmoschus esculentus [17])?
A: 82%

Q: And the Activity (Synedrella nodiflora [18])?
A: 41.7%

Q: What about the Activity (Synedrella nodiflora [19]) of the same molecule?
A: 90%

Q: And the Activity (Abelmoschus esculentus [20])?
A: 47.9%

Q: And the Activity (Asteraceae)?
A: 51.7%

Q: And the Activity (Euphorbia heterophylla [21])?
A: 100%

Q: What about the Activity (Chromolaena odorata [22]) of the same molecule?
A: 48.3%

Q: And the Activity (Corchorus olitorius [23])?
A: 86.7%

Q: What about the Activity (Euphorbia heterophylla [24]) of the same molecule?
A: 90%

Q: And the Activity (Calopogonium mucunoides [25])?
A: 82.4%

Q: And the Activity (Talinum fruticosum)?
A: 21.7%

Q: What about the Activity [26] of the same molecule?
A: 31 /m2

Q: What about the Activity (Abelmoschus esculentus [27]) of the same molecule?
A: 1.4 mm

Q: What about the Activity (Abelmoschus esculentus [28]) of the same molecule?
A: 42.1%

Q: What about the Activity (Euphorbia heterophylla [29]) of the same molecule?
A: 90%

Q: And the Activity (Euphorbia heterophylla [30])?
A: 95%

Q: What about the Activity (Euphorbia heterophylla [31]) of the same molecule?
A: 95%

Q: What about the Activity [32] of the same molecule?
A: 63.3%

Q: What about the Activity (Calopogonium mucunoides [33]) of the same molecule?
A: 1 /m2
